The values that follow come from article PMC7318222, “A Family of Water‐Immiscible, Dipolar Aprotic, Diamide Solvents from Succinic Acid” (Chemsuschem, 2020).

For data set [1], the system named is ESRE. Briefly: ESRE CALUX assay (unfolded protein response). Type of data set: cell-based, human. The arrangement: key: –: no effect observed up to the highest test concentration. Particulars: cell signaling pathway assay, 24 h exposure. The source says:
Six of the CALUX assays (TCF through p53) detect activation of several cellular signaling pathways, which are indicative of general stress and acute toxicity, but also a range of more specific types of toxicity, including reproductive toxicity. […]
(§1) 2-methylimidazole 99.0%, zinc(II) nitrate hexahydrate ≥99.0%, para-cymene 99.0%, 1,4-dioxane 99.8% (anhydrous), 4-nitroaniline ≥99.0%, 1-octanol ≥99.0%, diglyme ≥99.0%, DMSO-d6 (99.8% D) and chloroform-d (99.8% D) were purchased from Sigma-Aldrich. Toluene ≥99.0%, hexane ≥99.5%, DCM ≥99.5%, chloroform ≥99.5%, DMSO ≥99.0% were purchased from VWR. N,N-diethyl-4-nitroaniline ≥98.0% was purchased from Alfa Aeser. Cyrene was supplied by Circa group. N-butylpyrrolidinone was supplied by Eastman chemicals. N,N-dimethylformamide 99.9% and N,N-dimethylacetamide 99.9% were purchased from Fischer. The flakes of Ultrason® E3020 P Polyarylethersulfone of 55,000 Da were obtained from INGE.BASF, Germany. The CALUX cell lines have been described previously.[1] They are based on human U2-OS cells (ATCC, HTB-96) stably transfected with an expression construct for the full-length human receptor under investigation, and a reporter construct consisting of multimerized responsive elements for the cognate receptor coupled to a minimal promoter element (TATA) and a luciferase gene. Cells were maintained as described previously,[2] using cell culture media and supplements from Fisher Scientific as described in the experimental procedures section. […]
(§2) In vitro reporter gene assays
(§3) The automated CALUX assays were carried out similarly as described earlier,[12] with some adaptations. In brief, the assay was performed in CO2 independent medium (Fisher Scientific, […]
(§4) supplement (Fisher Scientific, 11574466), 10 U/mL penicillin and 10 µg/mL streptomycin. A cell suspension in assay medium was made of 1 × 10^5cells/mL, and white 384-wells plates were seeded with 30 µl cell suspension/well. After 24 h, exposure medium was prepared. A dilution series in 0.5log unit increments of each test compound (in DMSO) was added to a 96-wells plate containing assay medium (2% v/v). Of this exposure mixture, 30 µl was added to the assay plates containing the CALUX cells, resulting in a final DMSO concentration of 1%. Additionally, DMSO blanks and a full dose response curve of the relevant reference compound were included on each plate. All samples were tested in triplicate. The preparation of the compound dilution series as well as the exposure of the cells were performed on a Hamilton StarLET liquid handling robot coupled to a Cytomat incubator.
(§5) Directly after exposure, plates were sealed with non-breathing plate seals (Plate sealer, easy seal transparent; Greiner-Bio-One, 676001). After 24 h the exposure medium was removed using an EL406 washer-dispenser (BioTek) and 10 µl/well triton lysisbuffer was added by the EL406.
Subsequently, the luciferase signal was measured in a luminometer (InfinitePro coupled to a Connect Stacker, both TECAN). In order to be able to detect receptor antagonism, several assays were also performed in antagonistic mode. The assay procedure was as described above, with the only exception that the EC50 concentration of the reference agonist was present during the exposure.
The luminometer data was analysed as follows; the average of the triplicate wells was determined, and the average blank (DMSO) value was subtracted. […] For antagonist- and cytotoxicity experiments, PC20 values were determined instead, which was defined […]

The target of data set [2] is T1, PPARγ (Homo sapiens, UniProt P37231).
T1 construct: expression construct for the full-length human receptor under investigation; expressed in transfected cells; host or cells: human U2-OS cells (ATCC HTB-96), stably transfected
T1 sequence (P37231 1-505): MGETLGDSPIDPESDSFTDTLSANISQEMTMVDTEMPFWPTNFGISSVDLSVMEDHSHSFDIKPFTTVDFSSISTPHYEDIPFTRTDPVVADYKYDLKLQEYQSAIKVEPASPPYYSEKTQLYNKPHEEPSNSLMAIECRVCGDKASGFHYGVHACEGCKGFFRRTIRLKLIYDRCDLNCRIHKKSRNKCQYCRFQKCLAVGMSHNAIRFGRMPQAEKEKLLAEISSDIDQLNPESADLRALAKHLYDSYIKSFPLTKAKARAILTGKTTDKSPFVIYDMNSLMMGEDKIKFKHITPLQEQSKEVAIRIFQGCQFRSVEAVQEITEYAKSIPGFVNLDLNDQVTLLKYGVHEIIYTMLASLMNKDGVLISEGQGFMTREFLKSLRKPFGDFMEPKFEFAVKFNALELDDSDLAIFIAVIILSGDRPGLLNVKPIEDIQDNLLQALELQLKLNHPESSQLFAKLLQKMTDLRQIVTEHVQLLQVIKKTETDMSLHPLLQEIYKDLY
Briefly: PPARγ CALUX reporter gene assay. Particulars: PC10, 24 h exposure. Type of data set: cell-based. The arrangement: key: –: no effect observed up to the highest test concentration.
Excerpt: as §1, §2, §3, §4, §5
Subsequently, the luciferase signal was measured in a luminometer (InfinitePro coupled to a Connect Stacker, both TECAN). In order to be able to detect receptor antagonism, several assays were also performed in antagonistic mode. […]
The luminometer data was analysed as follows; the average of the triplicate wells was determined, and the average blank (DMSO) value was subtracted. […] For antagonist- and cytotoxicity experiments, PC20 values were determined instead, which was defined as the concentration where the test compound causes a 20% decrease in the basal signal, which was […]
curve, the signal induction above background (DMSO) was determined, and the concentration where the compound elicited a 1.5-fold increase above background was used as LEC.
A general note: A reporter such as luciferase makes a cellular process visible.

Data set [3] can be described thus: Octanol/water partition coefficient (Log P(o/w)), shake flask method. Type of data set: physicochemical. Particulars: this work. The source says:
The succindiamides have large, positive Log P (o/w) values, meaning they favor the organic layer in an octanol/water biphasic system and are therefore more lipophilic.37 In contrast, the traditional dipolar aprotics have large, negative Log P (o/w) values so are more hydrophilic. […] Importantly, none of the succindiamide solvents have a Log P (o/w) above 4, the value that has been set as a threshold for bioaccumulation in the environment. […]
Equation S2. π = ν [DMSO]−ν [cyclohexane] […]
Determination of octanol/water partition coefficient (Log P(o/w))
Determination of the log P(o/w) was done by the shake flask method. 1.5 mL each of octanol and water were mixed in a 4 mL vial. 30 μL of the test solute and 10 μL of an internal standard (diglyme) were added and the mixture was shaken for 30 seconds and allowed to stand overnight. Samples (1 mL) were taken from both the aqueous and organic layers and added to 1.5 mL GC vials for GC analysis.
Log P(o/w) was obtained using Equation S5.

A word on the logP: it is a log measure of how a compound divides between an organic and an aqueous phase. On to `CCCCN(CC)C(=O)CCC(=O)N(CC)CCCC` [EBSA, N,N′‐diethyl‐N,N′‐dibutylsuccindiamide], for which the “LEC ESRE” value in data set [1] was “–”. Also, the “LEC PPARγ” value in data set [2] is on record as “–”. For the same compound, in data set [3], the log partition coefficient (logP) was 2.72.
On to `CCCCN(C)C(=O)CCC(=O)N(C)CCCC` [MBSA, N,N′‐dimethyl‐N,N′‐dibutylsuccindiamide], for which the “LEC ESRE” value in data set [1] was −2.4 Log M. Also, the “LEC PPARγ” value in data set [2] is listed as “–”. In data set [3], the logP amounted to 1.65.
For `CCCCN1CCCC1=O` [NBP, N‐Butylpyrrolidinone, reference compound] the same measures were “–”, “–” and 0.99.
For the compound `CN1CCCC1=O` [NMP, N‐methyl‐2‐pyrrolidone, reference compound], the “LEC ESRE” value in data set [1] is reported as “–”. For the same compound, the “LEC PPARγ” value in data set [2] is given as “–”.
On to `CCCCN(CCCC)C(=O)CCC(=O)N(CCCC)CCCC` [TBSA, N,N,N′,N′‐tetrabutylsuccindiamide], for which, in data set [1], the “LEC ESRE” value is given as “–”. In addition, the “LEC PPARγ” value in data set [2] is “–”. The same compound registered a logP in data set [3] of 3.77.
